The results in this text go back to ChEMBL document CHEMBL1201862, “PubChem BioAssay data set” (2004).

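Cells were grown in 96-well plates and exposed to each compound for 48 hours at five concentrations; endpoints were interpolated linearly between bracketing concentrations, or set to the highest concentration if not reached. GI50 = concentration required for 50% inhibition of growth.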 The source made the active and inactive calls. Rule as the data show it: active = GI50 up to about 1.1 µM and inactive = higher.

Among the test systems are A498; A549; HCC 2998; K562; KM12; NCI-H522; OVCAR-5; SN12C; SW-620; TK-10; U-251; UACC-62; UO-31; COLO 205; HCT-15; RPMI-8226.
Common to all, as to assay: NCI tumour cell line growth inhibition, 48 h

Regarding `O=C(/C=C/c1ccccc1O)c1cccnc1`, the GI50 in the test with A498, in the test on A549, in the test with HCC 2998, in the test with K562, with KM12 and with NCI-H522 was > 100 µM (inactive) each time. The GI50 in the test with OVCAR-5, in the test with SN12C, with SW-620, with TK-10, in the test with U-251 and in the test on UACC-62 was > 100 µM (inactive) in each case. Besides, the GI50 in the test on UO-31 was > 100 µM (inactive).

Turning to `Nc1ccc(C(=O)NN2C(=O)C(Cl)C2c2ccccc2O)cc1` (stereo not drawn), the GI50 in the test with A549 was 93.1 µM (inactive); in the test on COLO 205, 43.2 µM (inactive); in the test on HCC 2998, 18.7 µM (inactive); in the test with HCT-15 it was 35.2 µM; in the test with K562, 75 µM (inactive); in the test with KM12 it was 82.6 µM (inactive). For the same molecule, the GI50 in the test with NCI-H522 was 62.2 µM (inactive); with OVCAR-5, 41.7 µM (inactive); with RPMI-8226, 44.5 µM (inactive); in the test with SN12C, > 100 µM (inactive); in the test on SW-620, 73.6 µM (inactive); with TK-10 it was > 100 µM (inactive). The GI50 with U-251 was 36 µM (inactive); in the test on UACC-62, 72.3 µM (inactive); in the test with UO-31 it was 21.9 µM (inactive).

On to `CC(C)(C)OC(=O)Cc1ccc2c(ccn2Cc2ccccc2)c1`, for which the GI50 was > 100 µM (inactive) in the test on A498; 48.8 µM (inactive) with A549; 44.1 µM (inactive) in the test with COLO 205; > 100 µM (inactive) in the test with HCC 2998; 12.8 µM in the test on HCT-15; > 100 µM (inactive) with K562. For the same molecule, the GI50 in the test with KM12 is 64.3 µM (inactive); in the test with NCI-H522, 44.2 µM (inactive); with OVCAR-5, 42.5 µM (inactive); in the test with SN12C it was 52.1 µM (inactive); with SW-620 it was 67.1 µM (inactive); with TK-10 it was 79.6 µM (inactive). Besides, the GI50 with U-251 was 19.8 µM (inactive); in the test on UACC-62, 69 µM (inactive); in the test on UO-31, 37.9 µM (inactive).

Regarding `Cc1cc(NS(=O)(=O)c2ccc(NC(=O)c3ccc(Cl)c4c(Nc5ccc(S(=O)(=O)Nc6cc(C)on6)cc5)c5ccccc5nc34)cc2)no1`, the GI50 in the test on A498 was 24.1 µM (inactive); in the test with A549, 25.6 µM (inactive); in the test on COLO 205 it was 22.4 µM (inactive); in the test on HCT-15 it was 18.7 µM; with K562, 23.2 µM (inactive); with KM12, 19.7 µM (inactive). Moreover, the GI50 with NCI-H522 is 11.8 µM (inactive); with OVCAR-5, 21 µM (inactive); in the test on RPMI-8226 it was 27.5 µM (inactive); in the test with SN12C it was 18.6 µM (inactive); with SW-620 it was 28.1 µM (inactive); with TK-10 it was 31.3 µM (inactive). Also, the GI50 in the test with U-251 was 16.2 µM (inactive); with UACC-62, 14.4 µM (inactive); in the test on UO-31, 15.9 µM (inactive).

In the case of `CC(C)=CCCc1c(C)ccc2c1C(=O)C(=O)C(C(C)C)=C2`, the GI50 is > 22 µM (inactive) in the test with A498; > 22 µM (inactive) in the test with A549; 7.24 µM (inactive) in the test on COLO 205; > 22 µM (inactive) in the test on HCC 2998; 3.85 µM with HCT-15; 3.87 µM (inactive) in the test with K562. For the same molecule, the GI50 was > 22 µM (inactive) in the test with KM12; 3.4 µM (inactive) in the test on NCI-H522; 0.839 µM (active) in the test on RPMI-8226; 9.06 µM (inactive) with SN12C; 3.86 µM (inactive) with SW-620; 4.41 µM (inactive) in the test with TK-10. The GI50 with U-251 was > 22 µM (inactive); in the test with UO-31 it was 6.98 µM (inactive).

As for `C/C(=N/O)c1sc(-c2nc(C)c(/C(C)=N\O)s2)nc1C`, the GI50 is > 100 µM (inactive) in the test on A498; > 100 µM (inactive) with A549; > 100 µM (inactive) in the test on COLO 205; > 100 µM (inactive) in the test with HCC 2998; above 100 µM in the test on HCT-15; > 100 µM (inactive) in the test with K562. Further, the GI50 in the test on RPMI-8226, in the test on SN12C, in the test with SW-620, in the test on U-251, in the test with UACC-62 and in the test with UO-31 was > 100 µM (inactive) in each case.

Take `CC(=O)Oc1c(Br)ccc2cc(C(Br)Br)c(C(=O)c3ccccc3)nc12`: the GI50 in the test with A549 was 24.3 µM (inactive); in the test with COLO 205, 24.4 µM (inactive); in the test with HCC 2998, 17.9 µM (inactive); in the test on HCT-15 it was 22.8 µM; in the test on K562, 20.2 µM (inactive); with KM12 it was 19.6 µM (inactive). Also, the GI50 in the test with NCI-H522 is 4.21 µM (inactive); in the test with OVCAR-5, 17.3 µM (inactive); in the test with RPMI-8226 it was > 10 µM (inactive); with SN12C it was 20 µM (inactive); in the test with SW-620, 22.4 µM (inactive); with TK-10, 17.7 µM (inactive). Moreover, the GI50 in the test on U-251 is 19.2 µM (inactive); with UACC-62, 20 µM (inactive); in the test on UO-31 it was 19.2 µM (inactive).

In the case of `COc1ccc(C=O)cc1O[Si](C)(C)C(C)(C)C`, the GI50 in the test on A498 was > 100 µM (inactive); in the test with A549 it was > 100 µM (inactive); in the test on COLO 205, > 100 µM (inactive); with HCC 2998, > 100 µM (inactive); in the test with HCT-15, above 100 µM; in the test on K562, > 100 µM (inactive). The GI50 in the test with KM12, in the test on OVCAR-5, in the test on RPMI-8226, with SN12C, in the test on SW-620 and in the test on TK-10 was > 100 µM (inactive) each time. Besides, the GI50 in the test on U-251, in the test with UACC-62 and with UO-31 was > 100 µM (inactive) throughout.

As for `O=C(O)CCC1CCc2cccc(OCC(=O)O)c2C1=O` (stereo not drawn), the GI50 was > 100 µM (inactive) in the test with A498; > 100 µM (inactive) in the test with A549; > 100 µM (inactive) with COLO 205; > 100 µM (inactive) in the test with HCC 2998; above 100 µM in the test with HCT-15; > 100 µM (inactive) with K562. The GI50 in the test with RPMI-8226, in the test with SN12C, with SW-620, with TK-10, in the test on U-251 and in the test on UACC-62 was > 100 µM (inactive) in each case.

Take `C=C(C)C1CC[C@]2(C(=O)O)CCC3(C)[C@H](CCC4[C@@]5(C)CC[C@H](OC6OC(CO)C(O)C6OC6OC(C)C(O)C(O)C6O)[C@@](C)(CO)C5CC[C@]43C)C12` (stereo partly drawn): the GI50 in the test on A549 was > 100 µM (inactive); in the test with COLO 205, > 100 µM (inactive); with HCC 2998, > 100 µM (inactive); in the test on HCT-15, above 100 µM; in the test with K562 it was > 100 µM (inactive); in the test on KM12, > 100 µM (inactive). Further, the GI50 was 88.1 µM (inactive) in the test on NCI-H522; > 100 µM (inactive) in the test with OVCAR-5; > 100 µM (inactive) with SN12C; > 100 µM (inactive) in the test with SW-620; > 100 µM (inactive) in the test with TK-10; > 100 µM (inactive) in the test on U-251. Besides, the GI50 in the test on UACC-62 is > 100 µM (inactive); in the test with UO-31 it was 20.1 µM (inactive).

Consider `Oc1nc(S)nc2c1CCCN2`, for which the GI50 is > 100 µM (inactive) in the test with A549; > 100 µM (inactive) in the test on COLO 205; above 100 µM with HCT-15; > 10 µM (inactive) in the test with K562; > 100 µM (inactive) with KM12; > 100 µM (inactive) in the test with NCI-H522. Besides, the GI50 in the test with OVCAR-5, in the test with RPMI-8226, in the test on SN12C, with SW-620, in the test on TK-10 and in the test on U-251 was > 100 µM (inactive) each time. Moreover, the GI50 with UACC-62 and with UO-31 was > 100 µM (inactive) in each case.

Regarding `Cn1c2c(c3ccccc31)CCN(CCCCN1CCN(c3cccc(Cl)c3)CC1)C2=O`, the GI50 was 13.8 µM (inactive) in the test on A498; 20.5 µM (inactive) in the test on A549; 2.91 µM (inactive) in the test with COLO 205; 11.6 µM in the test with HCT-15; 4.45 µM (inactive) in the test with K562; 12.3 µM (inactive) with NCI-H522. For the same molecule, the GI50 in the test on OVCAR-5 is 4.56 µM (inactive); in the test with RPMI-8226, 5.66 µM (inactive); with SN12C it was 12.8 µM (inactive); in the test on SW-620 it was 12.6 µM (inactive); in the test with TK-10, 11.5 µM (inactive); in the test on U-251, 11.6 µM (inactive). Further, the GI50 was 11.4 µM (inactive) in the test with UACC-62 and 6.21 µM (inactive) with UO-31.

As to `O=C1O[C@H](C(Cl)(Cl)Cl)N2CCCC12` (stereo partly drawn), the GI50 with A498 is > 100 µM (inactive); in the test on A549 it was > 100 µM (inactive); in the test with COLO 205, > 100 µM (inactive); with HCT-15 it was above 100 µM; in the test on K562, > 100 µM (inactive); in the test on KM12, > 100 µM (inactive). Further, the GI50 in the test with NCI-H522, in the test on OVCAR-5, in the test on RPMI-8226, in the test on SN12C, in the test on SW-620 and with TK-10 was > 100 µM (inactive) throughout. The GI50 with U-251, in the test with UACC-62 and in the test with UO-31 was > 100 µM (inactive) throughout.

In the case of `CC(C)=C1CCC(CN(C)C)C1=O` (stereo not drawn), the GI50 in the test with A498 is 19.6 µM (inactive); in the test with A549 it was > 100 µM (inactive); in the test on COLO 205, 24.1 µM (inactive); in the test with HCC 2998, 19.1 µM (inactive); in the test on HCT-15 it was 14.8 µM; in the test on K562 it was 6.08 µM (inactive). In addition, the GI50 in the test on KM12 is 29.7 µM (inactive); in the test on NCI-H522, 0.196 µM (active); in the test with OVCAR-5, > 100 µM (inactive); with SN12C it was 18.4 µM (inactive); in the test on SW-620, 6.12 µM (inactive); in the test with TK-10, 17.1 µM (inactive). For the same molecule, the GI50 with U-251 was > 100 µM (inactive); in the test with UACC-62 it was 18.1 µM (inactive); with UO-31 it was > 100 µM (inactive).
